Laboratory results: PubChem BioAssay (NCI)
Where “and” joins values, the source holds several entries; their conditions need not be identical. Identical values can stand only once.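 These data come from cells grown in 96-well plates and exposed to compound for 48 hours at five concentrations. At the GI50, growth is halved. TGI marks complete inhibition of growth.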

Assays:
Test in all cases: inhibition of tumour cell growth, NCI panel, 48 h
OVCAR-3 ovarian = system: OVCAR-3 ovarian
K-562 leukemia = system: K-562 leukemia
EKVX NSCLC = system: EKVX NSCLC
SK-MEL-28 melanoma = system: SK-MEL-28 melanoma
HOP-62 NSCLC = system: HOP-62 NSCLC
SK-OV-3 ovarian = system: SK-OV-3 ovarian
U251 CNS = system: U251 CNS
SK-MEL-5 melanoma = system: SK-MEL-5 melanoma
UACC-62 melanoma = system: UACC-62 melanoma
SF-539 CNS = system: SF-539 CNS

Structure (SMILES)	TGI (OVCAR-3 ovarian)	TGI (K-562 leukemia)	TGI (EKVX NSCLC)	TGI (SK-MEL-28 melanoma)	TGI (HOP-62 NSCLC)	TGI (SK-OV-3 ovarian)	TGI (U251 CNS)	TGI (SK-MEL-5 melanoma)	TGI (UACC-62 melanoma)	TGI (SF-539 CNS)	GI50 (EKVX NSCLC)	GI50 (SK-MEL-28 melanoma)	GI50 (OVCAR-3 ovarian)	GI50 (K-562 leukemia)	GI50 (SF-539 CNS)	GI50 (U251 CNS)	GI50 (HOP-62 NSCLC)	GI50 (SK-MEL-5 melanoma)	GI50 (UACC-62 melanoma)	GI50 (SK-OV-3 ovarian)
Cc1cc(C)n(C(=O)C(C)Sc2nnc(SC(C)C(=O)n3nc(C)cc3C)s2)n1 (centres undefined)	> 100 µM	> 100 µM	> 100 µM	> 100 µM	> 100 µM	> 100 µM	> 100 µM	> 100 µM	> 100 µM											
C[N+]1(C)C2CCC1CC(OC(=O)C(CO)c1ccccc1)C2 (centres undefined)	> 100 µM	> 100 µM	> 100 µM	> 100 µM	> 100 µM	> 100 µM	> 100 µM	> 100 µM	> 100 µM	> 100 µM										
Cc1nc(Cl)c(C)c(Cl)n1	> 100 µM	> 91.9 µM	> 50.9 µM	> 100 µM	> 100 µM	> 100 µM	> 100 µM	> 100 µM	> 100 µM	> 100 µM										
Cc1c(N)nc([C@H](CC(N)=O)NC[C@H](N)C(N)=O)nc1C(=O)N[C@H](C(=O)N[C@H](C)[C@@H](O)[C@H](C)C(=O)N[C@H](C(=O)NCCc1nc(-c2nc(C(=O)NCCC[S+](C)C)cs2)cs1)[C@@H](C)O)C(OC1OC(CO)C(O)C(O)C1OC1OC(CO)C(O)C(OC(N)=O)C1O)c1cnc[nH]1 (some centres undefined)	29 µM [middle of 4 runs]		22 µM and 25 µM	25 µM and > 29 µM and > 100 µM				16.9 µM [middle of 4 runs]			25 µM	> 29 µM and 28.1 µM								
Cc1c2c(cc3c1[nH]c1ccccc13)C(c1ccc(F)cc1)=NCC2	2.93 µM	5.93 µM	9.02 µM	4.74 µM	6.54 µM	4.45 µM	5.11 µM	4.83 µM	2.77 µM	2.77 µM										
CN1CCN(CCCOc2ccc3ncnc(Nc4ccc(Oc5cccc(C(F)(F)F)c5)c(Cl)c4)c3c2)CC1	2.56 µM	4 µM	3.4 µM	3.01 µM			3.2 µM			3 µM	1.16 µM	1.63 µM	1.09 µM	1.17 µM	1.6 µM	1.54 µM				
CC(=O)C1(c2ccccc2)CCCN(C)CC1 (centres undefined)	> 100 µM			> 100 µM	> 100 µM	> 100 µM	> 100 µM	> 100 µM	> 100 µM											
CCn1cc(C(=O)O)c(=O)c2cc(F)c(N3CCN(Cn4c(O)c(N=NC(=O)c5ccncc5)c5cc(Cl)ccc54)CC3)cc21	> 100 µM	> 100 µM	> 100 µM	> 100 µM	55.2 µM	61.3 µM	94.4 µM	> 100 µM	> 100 µM	63.1 µM										
COc1ccc(/C=c2/[nH]c(=O)/c(=C\c3ccc(OCc4ccccc4)cn3)[nH]c2=O)cc1	> 100 µM	> 100 µM	> 100 µM	> 100 µM	> 100 µM	> 100 µM	> 100 µM	> 100 µM	> 100 µM	> 100 µM										
O=C1c2scnc2-c2nccc3c2c1nc1ccccc13	> 100 µM	> 100 µM	> 20.2 µM	2.56 µM	8.18 µM	23.4 µM			1.45 µM	1.54 µM										
Cc1c(Cl)c(=O)oc2cc(OCC(=O)c3ccccc3)ccc12	> 100 µM	> 100 µM	> 100 µM	> 100 µM	67.8 µM	> 100 µM	> 100 µM	> 100 µM	> 100 µM	> 100 µM										
COC1(OC)C[C@H](C)[C@@]23O[C@]24c2cc(O)c5c(c2N[C@H]3C#C/C=C\C#C[C@]14O)C(=O)c1ccccc1C5=O	0.77 µM	0.101 µM and 0.201 µM	0.213 µM and 0.202 µM	0.234 µM and 0.087 µM	0.00216 µM and 0.0173 µM	0.0217 µM	0.0421 µM and 0.0705 µM	0.0222 µM and 0.00891 µM	0.0359 µM and 0.0324 µM	0.00304 µM	0.0527 µM	0.0273 µM		0.00399 µM	< 0.001 µM	0.00251 µM	< 0.001 µM	0.00172 µM	0.00204 µM	
O=c1c2c([nH]c3nccn13)CCCC2	> 10 µM		> 10 µM	> 10 µM	> 10 µM	> 10 µM	> 10 µM	> 10 µM	> 10 µM	> 10 µM										
O=C1OC(c2ccccc2)=N/C1=C/c1cccs1	> 100 µM	> 100 µM	> 100 µM	> 100 µM	> 100 µM	> 100 µM	> 100 µM			> 100 µM										
O=C1CC(N2C(=O)/C(=C/C(Cl)=C\c3ccc([N+](=O)[O-])cc3)SC2=S)C(=O)N1c1ccc(Cl)cc1 (centres undefined)	2.62 µM	11.6 µM	> 100 µM	4.02 µM	5.5 µM	> 100 µM	2.47 µM		4.3 µM	4.14 µM	3.11 µM	1.71 µM	0.721 µM	0.692 µM	1.69 µM	0.478 µM	1.73 µM		1.77 µM	3.56 µM
CCCCC1Cc2cc(OC)ccc2-c2nc3cc(OC)ccc3n21 (centres undefined) (tested in a mixture with another compound)	29.8 µM	36.8 µM	25.2 µM		29.2 µM	26.4 µM	28.3 µM	27.4 µM	25.5 µM	29.7 µM										
